Experimental data published in patent US20240409475A1, “INTERMEDIATE-RELEASE FERTILIZERS AND METHODS FOR MAKING SAME” (OSTARA NUTRIENT RECOVERY TECHNOLOGES INC., priority 2021, published 2024).

Tested on: canola
Test: canola germination as a function of phosphate application rate
Type: in vivo
Conditions: media containing increasing concentrations of phosphate application
Description: FIG. 8 is a graph showing germination rate for canola as a function of phosphate applicant rate for various sources of phosphorus listed in Table 2.

SMILES: N.N.O=P(O)(O)O [DAP, Di-Ammonium Phosphate]
- germination of canola seedlings: inhibited at even the lowest application rate

SMILES: N.O=P(O)(O)O [MAP, Mono-Ammonium Phosphate]
- germination of canola seedlings: inhibited at even the lowest application rate
